According to US20200025762A1, “NON-TARGET SITE RESISTANCE” (UNIVERSITY OF NEWCASTLE UPON TYNE, priority 2017, published 2020):

What was measured:
[1] = test system: Pendimethalin population (ROTH PEND 14) of black-grass; test: Cross resistance test of the Pendimethalin selected line; assay type: in vivo, Alopecurus myosuroides; settings: full or ¾ field rate; FIG. 18; not due to TSR (PCR of ACCases)
From the text: (§1) However, given that the two populations have no known relationship to the HS population, some of these differences could have arisen due to background genetic variation not linked to herbicide resistance. To test this, the inventors extended the proteomic comparison to two additional populations originating from the HS Rothamsted population that had undergone 5-7 years of experimentally controlled selection under a single herbicide regime, either Fenoxaprop or Pendimethalin (Supplementary Methods S1). These herbicides were used because whereas resistance to fenoxaprop can arise through both TSR- and NTSR-based mechanisms (Cocker et al., 1999), evolved tolerance to pendimethalin in black-grass is most commonly associated with enhanced detoxification (James et al., 1995). The inventors then tested these populations for cross-resistance to other herbicides at either full or ¾ field rate (Supplementary Methods S2). Despite being selected under exposure to a single herbicidal mode of action (inhibition of microtubule assembly), the Pendimethalin population was also resistant against several herbicides with ACCase mode of action (fenoxaprop, clodinafop, cycloxidim), but not ALS or cell division MOA (FIG. 18). PCR of the respective ACCases in the selected population (Marshall et al., 2013), confirmed that resistance was not due to TSR-related mechanisms.
A black-grass population originating from Rothamsted Broadbalk experimental grounds (guaranteed herbicide free) was used as the standard Herbicide Susceptible (HS) population, collected in 2009. This was used as a standard control for two “real” NTSR populations originating from wheat field sites in Essex (Peldon) and Oxford and two experimental NTSR populations that had undergone directed selection to two types of herbicidal active ingredients (Fenoxaprop and Pendimethalin). Both experimental populations originated from the Rothamsted HS population in 2004. Further details on the selection regime to create the distinct Fenoxaprop and Pendimethalin resistant populations are provided in Supplementary Methods S1/S2. […]

[2] = test system: Fenoxaprop population (ROTH FEN OUT) of black-grass; test: Cross resistance test of the Fenoxaprop selected line; assay type: in vivo, Alopecurus myosuroides; settings: full or ¾ field rate; FIG. 18; no evidence of TSR
From the text: as §1, with “mechanisms. […]” for “mechanisms.”

SMILES: C#CCOC(=O)[C@@H](C)Oc1ccc(Oc2ncc(Cl)cc2F)cc1
- herbicide resistance of the Pendimethalin population [1]: resistant

SMILES: CCCC(=NOCC)C1=C(O)CC(C2CCCSC2)CC1=O (stereo not shown) [cycloxidim]
- herbicide resistance of the Pendimethalin population [1]: resistant

SMILES: CC(Oc1ccc(Oc2nc3ccc(Cl)cc3o2)cc1)C(=O)O (stereo not shown) [fenoxaprop]
- herbicide resistance of the population selected with fenoxaprop [2]: only resistant toward the selecting herbicide
- herbicide resistance of the Pendimethalin population [1]: resistant
